Assay results taken from US20220348883A1, “HIGH-DENSITY CELL CULTURE METHOD” (AJINOMOTO CO., INC., priority 2020, published 2022).

Tested on: iPS cell 1210B2 strain
Details: StemFit AK03N+10 mg/L choline chloride vs StemFit AK03N; suspension culture seeded at 6×10^5 cells/mL; viable cells measured on 8th day of culture; n=1
Description: In the following Example, the proliferation effect of induced pluripotent stem cells (iPS cells) by choline were evaluated. As the iPS cell, 1210B2 strain purchased from iPS Academia Japan was used. In addition, as a medium for iPS cells, a commercially available StemFit AKO3N (Ajinomoto Co., Inc.) was used.
Using a 30 mL single use bioreactor for iPS cells (ABLE: BWV-S03A), iPS cell 1210B2 strain was seeded in StemFit AK03N+10 μM Y-27632 (Wako: 034-24024) at a cell density of 6×10^5 cells/mL and the cells were cultured with stirring in a CO2 incubator under the conditions of 37° C., CO2 concentration=5%, stirring speed=120 rpm. On the second day of seeding, 70% of the medium was replaced with StemFit AK03N. […] The cells were transferred to a micro bioreactor ambr15 (sartorius:001-0881), and stirring culture was continued under the conditions of 37° C., pH=7.2, dissolved oxygen concentration=20%, stirring speed=300 rpm. […] On the 8th day of culture, the number of viable cells was measured using Vi-CELL™ XR (Beckman Coulter), a live/dead cell autoanalyzer.

Which “influence of choline on the proliferation of iPS cells (number of viable cells)” value does the source give for `C[N+](C)(C)CCO.[Cl-]` [choline, choline chloride] here?
The value was “cell proliferation promoting effect”.
